The results in this text go back to US11498885B2, “Use of pyrazole propargyl ethers as nitrification inhibitors” (BASF SE, priority 2018, dated 2022).

The nature of data set [1]: volatility of prior-art nitrification inhibitor. Format: physicochemical. Particulars: stated as disadvantageous for long-term applications.
A further data set deals with nitrification. The data set can be described thus: inhibition of nitrification in soil incubation test. Format: cell-based, soil microbial biomass. Particulars: 100 g soil, 10 mg ammoniumsulfate-N, 20° C., 14 days, best obtained NI value. As to the method:
The compounds of the invention have been tested as follows in terms of the inhibition of nitrification: 100 g soil is filled into 500 ml plastic bottles (e.g. soil sampled from the field) and is moistened to 50% water holding capacity. The soil is incubated at 20° C. for two weeks to activate the microbial biomass. 1 ml test solution, containing the compound in the appropriate concentration (usually 0.3 or 1% of nitrogen N), or DMSO and 10 mg nitrogen in the form of ammoniumsulfate-N is added to the soil and everything mixed well. Bottles are capped but loosely to allow air exchange. The bottles are then incubated at 20° C. for 0 and 14 days. For analysis, 300 ml of a 1% K2SO4-solution is added to the bottle containing the soil and shaken for 2 hours in a horizontal shaker at 150 rpm. Then the whole solution is filtered through a filter (Macherey-Nagel Filter MN 807¼). Ammonium and nitrate content is then analyzed in the filtrate in an autoanalyzer at 550 nm (Merck, AA11). The inhibition (NI @ a specified concentration) is calculated as follows: [formula]

Molecules are shown by their SMILES.

With `CCOc1cc(C)[nH]n1` [3-ethoxy-5-methylpyrazole], in data set [1], the volatility result is on record as “high volatility”. On to `C#CCOc1ccn[nH]1` [Compound 1], for which the “NI* @ 0.3%” value in the data set on nitrification (compound at 0.3% of nitrogen N) was found to be 60.6. Besides, in the data set with nitrification (compound at 1% of nitrogen N), the “NI* @ 1%” value was 74.7.
